Results on 26 compounds are retold here after ChEMBL document CHEMBL3124892, “Polyphenols bearing cinnamaldehyde scaffold showing cell growth inhibitory effects on the cisplatin-resistant A2780/Cis ovarian cancer cells” (Bioorg Med Chem, 2014).

Structures are written as SMILES. Calls of active or inactive are those of the source. The rule behind the calls is not given here. Where only a bound is given, the exact number is not on record here.

A short description of experiment [1]: Growth inhibition of cisplatin-resistant human A2780cis cells after 7 days by crystal violet staining based clonogenic assay. In kind it is functional. The conditions noted are these: A2780cisR, 168 h.
Experiment [2] can be described thus: Cell cycle arrest in cisplatin-resistant human A2780cis cells assessed as accumulation at sub-G1 phase at 20 uM after 24 hrs by propidium iodide staining based flow cytometry (reference value: 7.76%). In kind it is functional. As to conditions: A2780cisR. (In general: A flow cytometer gives signals particle by particle.)
Another experiment deals with T1, Aurora kinase A (Homo sapiens, UniProt O14965).
T1 sequence (O14965 whole entry): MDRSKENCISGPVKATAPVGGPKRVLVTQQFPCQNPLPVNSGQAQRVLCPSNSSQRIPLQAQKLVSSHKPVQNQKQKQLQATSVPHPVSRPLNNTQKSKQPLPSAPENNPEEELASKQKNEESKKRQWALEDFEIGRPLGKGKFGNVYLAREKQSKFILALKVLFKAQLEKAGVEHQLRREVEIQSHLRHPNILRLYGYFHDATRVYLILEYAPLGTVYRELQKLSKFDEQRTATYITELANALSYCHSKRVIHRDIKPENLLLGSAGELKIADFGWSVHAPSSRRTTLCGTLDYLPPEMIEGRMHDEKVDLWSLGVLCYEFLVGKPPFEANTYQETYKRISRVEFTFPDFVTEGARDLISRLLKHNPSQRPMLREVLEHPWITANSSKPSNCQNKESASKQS
The experiment can be described thus: Inhibition of human aurora A kinase using LRRASLG as substrate by scintillation counting in presence of [gamma-33P]ATP.

The nature of experiment [3]: Cell cycle arrest in cisplatin-resistant human A2780cis cells assessed as accumulation at G2/M phase at 20 uM after 24 hrs by propidium iodide staining based flow cytometry (reference value: 29.47%). Format: functional. The conditions noted are these: A2780cisR.
Experiment [4] concerns A2780cisR. The experiment can be described thus: Induction of apoptosis in cisplatin-resistant human A2780cis cells assessed as PARP cleavage at 20 uM after 24 hrs by western blot analysis. Format: functional, cell-based.
The subject of experiment [5] is A2780cisR. The experiment can be described thus: Antiproliferative activity against cisplatin-resistant human A2780cis cells at 1 to 20 uM by cell counting kit-8 analysis. Format: functional, cell-based. As to conditions: TDE = time-dependent effect. A general note: Tetrazolium dyes change colour on reduction, which living cells bring about.
Experiment [6] has as its system A2780cisR. The experiment can be described thus: Induction of apoptosis in cisplatin-resistant human A2780cis cells assessed as stimulation of caspase 7 cleavage at 20 uM after 24 hrs by western blot analysis. In kind it is functional, cell-based. On the technique in general: A western blot detects proteins with antibodies after separation by electrophoresis.
The nature of experiment [7]: Cell cycle arrest in cisplatin-resistant human A2780cis cells assessed as accumulation at G1 phase at 20 uM after 24 hrs by propidium iodide staining based flow cytometry (reference value: 45.33%). In kind it is functional. As to conditions: A2780cisR.
The test system of experiment [8] is A2780cisR. The experiment can be described thus: Antiproliferative activity against cisplatin-resistant human A2780cis cells after 24 to 48 hrs by cell counting kit-8 analysis. In kind it is functional, cell-based.
The nature of experiment [9]: Cell cycle arrest in cisplatin-resistant human A2780cis cells assessed as accumulation at S phase at 20 uM after 24 hrs by propidium iodide staining based flow cytometry (reference value: 17.24%). As to conditions: A2780cisR. Format: functional.
In experiment [10] the test system is A2780cisR. The experiment can be described thus: Induction of apoptosis in cisplatin-resistant human A2780cis cells assessed as increase in cleaved active caspase-7 level at 20 uM after 24 hrs by immunofluorescent microscopy. In kind it is functional, cell-based.
In experiment [11] the test system is A2780cisR. The experiment can be described thus: Induction of apoptosis in cisplatin-resistant human A2780cis cells assessed as shrunken and fragmented nuclei with condensed chromatin at 20 uM after 24 hrs by TO-PRO-3 iodide staining based immunofluorescent microscopy. Format: functional, cell-based.

On to `COc1cccc(/C=C/C(=O)c2c(O)cccc2OC)c1OC`, for which the GI50 is 9.67 µM in experiment [1] (read-out: GI50) and 9.8 µM in [1] (read-out: pGI50 (converted)).

Turning to `COc1cc(/C=C/C(=O)c2c(O)cccc2OC)cc(OC)c1`, the GI50 in [1] (read-out: GI50) was 11.4 µM; in experiment [1] (read-out: pGI50 (converted)) it was 11.5 µM.

As to `COc1ccc(/C=C/C(=O)c2c(O)cccc2OC)c(OC)c1OC`, the values for the GI50 in experiment [1] (read-out: GI50) and in [1] (read-out: pGI50 (converted)) were 18.4 µM and 18.2 µM, respectively.

With `COc1cccc(/C=C/C(=O)c2c(O)cccc2OC)c1`, the GI50 in [1] (read-out: GI50) was 9.64 µM; in experiment [1] (read-out: pGI50 (converted)) it was 9.57 µM.

Consider `COc1cc(OC)c(/C=C/C(=O)c2c(O)cccc2OC)c(OC)c1`, for which the Activity in [2] was 17.1%; in [3], 71%; in the experiment with A2780cisR [5], “tde”; in [7], 3.36%; in the experiment with A2780cisR [8], “Dose-dependent effect”; in experiment [9], 4.33%. Moreover, the GI50 was 3.87 µM in [1] (read-out: GI50) and 3.9 µM in experiment [1] (read-out: pGI50 (converted)). In addition, the concentration for half-maximal inhibition (IC50) (commonly the point on the concentration scale where inhibition reaches its midpoint) at Aurora kinase A is 66.4 µM. Further, the outcome with A2780cisR [4] and in the experiment on A2780cisR [6] was Active.

For `COc1cccc(/C=C/C(=O)c2cc(OC)ccc2O)c1`, the figures for the GI50 in experiment [1] (read-out: GI50) and in experiment [1] (read-out: pGI50 (converted)) were 10.1 µM and 10.3 µM, respectively.

Turning to `COc1cc(/C=C/C(=O)c2ccccc2O)cc(OC)c1`, the GI50 in experiment [1] (read-out: GI50) was 13.7 µM; in experiment [1] (read-out: pGI50 (converted)), 13.8 µM.

On to `COc1ccc(O)c(C(=O)/C=C/c2cccc(OC)c2OC)c1`, for which the GI50 in experiment [1] (read-out: GI50) and in experiment [1] (read-out: pGI50 (converted)) was 17 µM throughout.

On to `COc1ccc(/C=C/C(=O)c2c(O)cccc2OC)cc1`, for which the GI50 in experiment [1] (read-out: GI50) is 15.4 µM; in [1] (read-out: pGI50 (converted)), 15.5 µM.

For `COc1cc(OC)c(OC)cc1/C=C/C(=O)c1c(O)cccc1OC`, the GI50 is 19.2 µM in experiment [1] (read-out: GI50) and 19.1 µM in [1] (read-out: pGI50 (converted)).

On to `COc1ccc2c(c1)C=C(C=O)CO2`, for which the GI50 in experiment [1] (read-out: GI50) was over 20 µM; in experiment [1] (read-out: pGI50 (converted)) it was 20 µM.

As for `COc1ccccc1/C=C/C(=O)c1ccccc1O`, the GI50 was 11.7 µM in experiment [1] (read-out: GI50) and 11.8 µM in experiment [1] (read-out: pGI50 (converted)).

Consider `COc1ccc(/C=C/C(=O)c2ccccc2O)c(OC)c1OC`, for which the GI50 is 14.3 µM in [1] (read-out: GI50) and 14.5 µM in [1] (read-out: pGI50 (converted)).

For `O=C(/C=C/c1ccccc1)c1ccccc1O` [2'-HYDROXYCHALCONE], the GI50 in [1] (read-out: GI50) and in experiment [1] (read-out: pGI50 (converted)) was 13.5 µM in each case.

On to `COc1ccc(/C=C/C(=O)c2cc(OC)ccc2O)c(OC)c1`, for which the GI50 was 19.8 µM in experiment [1] (read-out: GI50) and 20 µM in experiment [1] (read-out: pGI50 (converted)).

Turning to `COc1cc(OC)c(/C=C/C(=O)c2cc(OC)ccc2O)c(OC)c1`, the Activity in experiment [2] was 16.5%; in experiment [3] it was 68.3%; in the experiment on A2780cisR [5], “tde”; in experiment [7], 3.53%; with A2780cisR [8], “Dose-dependent effect”; in experiment [9], 4.09%. The result with A2780cisR [10], in the experiment on A2780cisR [11], in the experiment on A2780cisR [4] and in the experiment with A2780cisR [6] was Active. Further, the GI50 was 3.95 µM in experiment [1] (read-out: GI50) and 3.99 µM in experiment [1] (read-out: pGI50 (converted)).

Turning to `COc1ccc2c(c1)OCC(C(C)=O)=C2`, the GI50 in [1] (read-out: GI50) is over 20 µM; in experiment [1] (read-out: pGI50 (converted)), 20 µM.

Consider `COc1cc(/C=C/C(=O)c2cc(OC)ccc2O)cc(OC)c1`, for which the GI50 in [1] (read-out: GI50) is 11.3 µM; in [1] (read-out: pGI50 (converted)), 11.2 µM.

In the case of `COc1cccc(/C=C/C(=O)c2ccccc2O)c1OC`, the GI50 in [1] (read-out: GI50) is 14.4 µM; in [1] (read-out: pGI50 (converted)) it was 14.5 µM.

As to `COc1ccc2c(c1)C=C(C(C)=O)CO2`, the GI50 in [1] (read-out: GI50) was over 20 µM; in experiment [1] (read-out: pGI50 (converted)), 20 µM.

As for `COc1ccccc1/C=C/C(=O)c1c(O)cccc1OC`, the figures for the GI50 in [1] (read-out: GI50) and in experiment [1] (read-out: pGI50 (converted)) were 9.55 µM and 9.57 µM, respectively.

As to `COc1ccc(O)c(C(=O)/C=C/c2cc(OC)c(OC)cc2OC)c1`, the GI50 in experiment [1] (read-out: GI50) is over 20 µM; in experiment [1] (read-out: pGI50 (converted)), 20 µM.

Take `COc1ccc(/C=C/C(=O)c2ccccc2O)cc1`: the GI50 in experiment [1] (read-out: GI50) and in [1] (read-out: pGI50 (converted)) was 15.9 µM in each case.

On to `COc1ccc(/C=C/C(=O)c2c(O)cccc2OC)c(OC)c1`, for which the GI50 in experiment [1] (read-out: GI50) is 9.55 µM; in experiment [1] (read-out: pGI50 (converted)) it was 9.57 µM.

On to `COc1ccc2c(c1)OCC(C=O)=C2`, for which the results for the GI50 in experiment [1] (read-out: GI50) and in [1] (read-out: pGI50 (converted)) were over 20 µM and 20 µM, respectively.

Turning to `COc1ccc(/C=C/C(=O)c2ccccc2O)c(OC)c1`, the GI50 in experiment [1] (read-out: GI50) was 15 µM; in experiment [1] (read-out: pGI50 (converted)) it was 14.8 µM.
